# From patent US8669249B2, “Poly (ADP-ribose) polymerase (PARP) inhibitors” (Takeda Pharmaceutical Company Limited, priority 2009, dated 2014)
# Tests used:
# PARP = target: T1, PARP (Homo sapiens, UniProt P09874); test: PARP ELISA (ELISA-based colorimetric PARP/Apoptosis Assay kit, Trevigen); assay type: biochemical; conditions: pIC50=-log10 IC50, IC50 in mol/L; inhibition of PARP catalytic activity
# T1 construct: purchased Trevigen 4684-096-K HT (kit); 4684-096-01 (PARP enzyme)
# How it was run: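 Quenched after 10 min catalysis by aspiration and four PBS/0.1% Triton X-100 washes. Poly(ADP-ribose) detected with mouse anti-PAR monoclonal antibody, goat anti-mouse IgG-HRP and HRP substrate; colorimetric signal proportional to PARP catalytic activity.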
# Jurkat cell line = test: PARP cellular chemopotentiation assay (MTS, with/without TMZ); assay type: cell-based; conditions: Chemopotentiation factor: ratio of EC50 values of Jurkat cells co-treated without and with 100 μM TMZ; 96 hours
# How it was run: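 Jurkat cells, 10,000/well, pre-cultured 24 h, then treated 96 h with serial compound dilutions (0.5% DMSO) with or without 100 μM TMZ. Viability by MTS conversion (OD490), normalized to DMSO controls; EC50 from curve fits, PF50 = EC50 without TMZ / EC50 with TMZ.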
# T1 sequence (P09874 whole entry): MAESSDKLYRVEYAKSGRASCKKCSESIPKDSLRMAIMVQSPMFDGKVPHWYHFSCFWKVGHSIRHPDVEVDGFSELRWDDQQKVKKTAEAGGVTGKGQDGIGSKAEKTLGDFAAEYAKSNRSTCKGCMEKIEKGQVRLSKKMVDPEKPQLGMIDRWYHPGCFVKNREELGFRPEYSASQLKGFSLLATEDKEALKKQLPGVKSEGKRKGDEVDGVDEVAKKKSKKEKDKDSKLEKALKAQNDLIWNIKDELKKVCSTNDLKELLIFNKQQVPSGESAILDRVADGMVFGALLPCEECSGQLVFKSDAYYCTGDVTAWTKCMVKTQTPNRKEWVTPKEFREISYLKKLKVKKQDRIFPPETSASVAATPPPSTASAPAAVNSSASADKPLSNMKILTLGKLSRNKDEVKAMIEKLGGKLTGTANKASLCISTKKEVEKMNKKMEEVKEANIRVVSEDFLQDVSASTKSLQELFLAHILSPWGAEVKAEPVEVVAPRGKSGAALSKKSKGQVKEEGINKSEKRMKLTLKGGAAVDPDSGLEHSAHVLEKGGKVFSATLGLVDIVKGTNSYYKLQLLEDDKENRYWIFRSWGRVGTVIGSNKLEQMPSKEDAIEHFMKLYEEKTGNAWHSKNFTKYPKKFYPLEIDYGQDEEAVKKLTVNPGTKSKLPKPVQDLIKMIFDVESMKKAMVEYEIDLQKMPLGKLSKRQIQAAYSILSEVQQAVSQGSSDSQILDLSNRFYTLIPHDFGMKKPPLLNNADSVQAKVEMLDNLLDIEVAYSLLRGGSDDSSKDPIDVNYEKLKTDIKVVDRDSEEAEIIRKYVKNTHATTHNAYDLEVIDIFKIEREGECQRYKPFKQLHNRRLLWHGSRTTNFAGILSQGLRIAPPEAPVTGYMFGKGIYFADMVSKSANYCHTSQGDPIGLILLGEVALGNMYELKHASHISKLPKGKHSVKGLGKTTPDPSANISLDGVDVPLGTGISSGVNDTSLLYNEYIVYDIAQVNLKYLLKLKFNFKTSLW
SMILES,IC50 (PARP) [nM],PF50 (Jurkat cell line)
"CNC(=O)c1ccc(N2CCN(Cc3cc(Cl)c4c(c3)NC(=O)C(C)O4)CC2)cc1 (stereo not shown) [Compound 308, 4-(4-((8-Chloro-2-methyl-3-oxo-3,4-dihydro-2H-benzo[b][1,4]oxazin-6-yl)methyl)piperazin-1-yl)-N-methylbenzamide]",20,6.3
"CC1Oc2cc(F)c(CN3CCN(c4ccc(C(=O)NC5CC5)cc4)CC3)cc2NC1=O (stereo not shown) [Compound 338, N-Cyclopropyl-4-(4-((7-fluoro-2-methyl-3-oxo-3,4-dihydro-2H-benzo[b][1,4]oxazin-6-yl)methyl)piperazin-1-yl)benzamide]",79.4,0.4
"CC(=O)c1ccc(N2CCN(Cc3ccc4c(c3)NC(=O)C(C)O4)CC2)cc1 (stereo not shown) [Compound 218, 6-((4-(4-Acetylphenyl)piperazin-1-yl)methyl)-2-methyl-2H-benzo[b][1,4]oxazin-3(4H)-one]",≥ 126,≦0.9
"CC1Oc2c(cc(CN3CCN(c4ccc(C(=O)NC5CC5)cc4)CC3)cc2C2CC2)NC1=O (stereo not shown) [Compound 348, N-Cyclopropyl-4-(4-((8-cyclopropyl-2-methyl-3-oxo-3,4-dihydro-2H-benzo[b][1,4]oxazin-6-yl)methyl)piperazin-1-yl)benzamide]",251,>5
"CCNC(=O)c1ccc(N2CCN(Cc3ccc4c(c3)NC(=O)[C@H](C)O4)CC2)cc1 [Compound 249, (S)-N-Ethyl-4-(4-((2-methyl-3-oxo-3,4-dihydro-2H-benzo[b][1,4]oxazin-6-yl)methyl)piperazin-1-yl)benzamide]",≤ 31.6,1.0-1.9
"CNC(=O)c1ccc(N2CCN(Cc3cc4c(cc3F)OC(C)C(=O)N4)CC2)cc1 (stereo not shown) [Compound 335, 4-(4-((7-Fluoro-2-methyl-3-oxo-3,4-dihydro-2H-benzo[b][1,4]oxazin-6-yl)methyl)piperazin-1-yl)-N-methylbenzamide]",63.1,0.3
"CCNC(=O)c1ccc(N2CCN(Cc3cc(C)c4c(c3)NC(=O)C(C)O4)CC2)c(Cl)c1 (stereo not shown) [Compound 382, 3-Chloro-4-(4-((2,8-dimethyl-3-oxo-3,4-dihydro-2H-benzo[b][1,4]oxazin-6-yl)methyl)piperazin-1-yl)-N-ethylbenzamide]",79.4,3.4
"CCCc1cc(CN2CCN(c3ccc(C(=O)NC)cc3)CC2)cc2c1OC(C)C(=O)N2 (stereo not shown) [Compound 358, N-Methyl-4-(4-((2-methyl-3-oxo-8-propyl-3,4-dihydro-2H-benzo[b][1,4]oxazin-6-yl)methyl)piperazin-1-yl)benzamide]",> 200,>3.0
"CCNC(=O)c1ccc(N2CCN(Cc3ccc4c(c3)NC(=O)[C@@H](C)O4)CC2)cc1 [Compound 250, (R)-N-Ethyl-4-(4-((2-methyl-3-oxo-3,4-dihydro-2H-benzo[b][1,4]oxazin-6-yl)methyl)piperazin-1-yl)benzamide]",≤ 31.6,2.0-9.9
"CCNC(=O)c1ccc(N2CCN(Cc3cc4c(c(OC)c3)OC(C)C(=O)N4)CC2)c(C)c1 (stereo not shown) [Compound 363, N-ethyl-4-(4-((8-methoxy-2-methyl-3-oxo-3,4-dihydro-2H-benzo[b][1,4]oxazin-6-yl)methyl)piperazin-1-yl)-3-methylbenzamide]",31.6,6522
"CCNC(=O)c1ccc(N2CCN(Cc3cc4c(c(OC)c3)OC(C)C(=O)N4)CC2)c(Cl)c1 (stereo not shown) [Compound 361, 3-Chloro-N-ethyl-4-(4-((8-methoxy-2-methyl-3-oxo-3,4-dihydro-2H-benzo[b][1,4]oxazin-6-yl)methyl)piperazin-1-yl)benzamide]",25.1,>3500
"CNC(=O)c1ccc(N2CCN(Cc3cc4c(c(C5CC5)c3)OC(C)C(=O)N4)CC2)cc1 (stereo not shown) [Compound 347, 4-(4-((8-Cyclopropyl-2-methyl-3-oxo-3,4-dihydro-2H-benzo[b][1,4]oxazin-6-yl)methyl)piperazin-1-yl)-N-methylbenzamide]",100,10.1
"CCNC(=O)c1ccc(N2CCN(Cc3cc4c(c(C5CC5)c3)OC(C)C(=O)N4)CC2)cc1 (stereo not shown) [Compound 346, 4-(4-((8-Cyclopropyl-2-methyl-3-oxo-3,4-dihydro-2H-benzo[b][1,4]oxazin-6-yl)methyl)piperazin-1-yl)-N-ethylbenzamide]",100,8.6
"CCNC(=O)c1ccc(N2CCN(Cc3cc4c(c(OC)c3)OC(C)C(=O)N4)CC2)c(F)c1 (stereo not shown) [Compound 360, N-Ethyl-3-fluoro-4-(4-((8-methoxy-2-methyl-3-oxo-3,4-dihydro-2H-benzo[b][1,4]oxazin-6-yl)methyl)piperazin-1-yl)benzamide]",39.8,3.1
"CCNC(=O)c1ccc(N2CCN(Cc3cc(C)c4c(c3)NC(=O)C(C)O4)CC2)cc1 (stereo not shown) [Compound 258, 4-(4-((2,8-Dimethyl-3-oxo-3,4-dihydro-2H-benzo[b][1,4]oxazin-6-yl)methyl)piperazin-1-yl)-N-ethylbenzamide]",≤ 31.6,≧10.0
"CC1Oc2c(Cc3ccccc3)cc(CN3CCN(c4ccc(C(=O)NC5CC5)cc4)CC3)cc2NC1=O (stereo not shown) [Compound 354, 4-(4-((8-Benzyl-2-methyl-3-oxo-3,4-dihydro-2H-benzo[b][1,4]oxazin-6-yl)methyl)piperazin-1-yl)-N-cyclopropylbenzamide]",> 200,1.0
"CCNC(=O)c1ccc(N2CCN(Cc3cc(O)c4c(c3)NC(=O)C(C)O4)CC2)cc1 (stereo not shown) [Compound 359, N-Ethyl-4-(4-((8-hydroxy-2-methyl-3-oxo-3,4-dihydro-2H-benzo[b][1,4]oxazin-6-yl)methyl)piperazin-1-yl)benzamide]",15.8,>6.0
"CC1Oc2cc(F)c(CN3CCN(c4ccc(C#N)cc4)CC3)cc2NC1=O (stereo not shown) [Compound 339, 4-(4-((7-Fluoro-2-methyl-3-oxo-3,4-dihydro-2H-benzo[b][1,4]oxazin-6-yl)methyl)piperazin-1-yl)benzonitrile]",79.4,1.0
"CNC(=O)c1ccc(N2CCN(Cc3cc(C)c4c(c3)NC(=O)C(C)O4)CC2)c(C)c1 (stereo not shown) [Compound 384, 4-(4-((2,8-Dimethyl-3-oxo-3,4-dihydro-2H-benzo[b][1,4]oxazin-6-yl)methyl)piperazin-1-yl)-N,3-dimethylbenzamide]",39.8,8.4
"CCNC(=O)c1ccc(N2CCN(Cc3ccc4c(c3)NC(=O)C(C)O4)CC2)c(Cl)c1 (stereo not shown) [Compound 371, 3-Chloro-N-ethyl-4-(4-((2-methyl-3-oxo-3,4-dihydro-2H-benzo[b][1,4]oxazin-6-yl)methyl)piperazin-1-yl)benzamide]",15.8,>20
"Cc1cc(CN2CCN(c3ccc(C(=O)NC4CC4)cc3F)CC2)cc2c1OC(C)C(=O)N2 (stereo not shown) [Compound 387, N-Cyclopropyl-4-(4-((2,8-dimethyl-3-oxo-3,4-dihydro-2H-benzo[b][1,4]oxazin-6-yl)methyl)piperazin-1-yl)-3-fluorobenzamide]",50.1,>5.0
"CC1Oc2cc(F)c(CN3CCN(c4ccc(C#N)cn4)CC3)cc2NC1=O (stereo not shown) [Compound 340, 6-(4-((7-Fluoro-2-methyl-3-oxo-3,4-dihydro-2H-benzo[b][1,4]oxazin-6-yl)methyl)piperazin-1-yl)nicotinonitrile]",63.1,0.9
"CCNC(=O)c1ccc(N2CCN(Cc3cc4c(c(OCC)c3)OC(C)C(=O)N4)CC2)c(C)c1 (stereo not shown) [Compound 401, 4-(4-((8-Ethoxy-2-methyl-3-oxo-3,4-dihydro-2H-benzo[b][1,4]oxazin-6-yl)methyl)piperazin-1-yl)-N-ethyl-3-methylbenzamide]",50.1,>5000
"COc1cc(CN2CCN(c3ccc(C(=O)NC4CC4)cc3F)CC2)cc2c1OC(C)C(=O)N2 (stereo not shown) [Compound 372, N-Cyclopropyl-3-fluoro-4-{4-[(8-methoxy-2-methyl-3-oxo-3,4-dihydro-2H-1,4-benzoxazin-6-yl)methyl]piperazin-1-yl}benzamide]",20,1.0
"CNC(=O)c1ccc(N2CCN(Cc3cc4c(c(OC(F)F)c3)OC(C)C(=O)N4)CC2)c(C)c1 (stereo not shown) [Compound 406, 4-(4-((8-(Difluoromethoxy)-2-methyl-3-oxo-3,4-dihydro-2H-benzo[b][1,4]oxazin-6-yl)methyl)piperazin-1-yl)-N,3-dimethylbenzamide]",63.1,13
"CNC(=O)c1ccc(N2CCN(Cc3cc4c(c(OC)c3)OCC(=O)N4)CC2)c(C)c1 [Compound 376, 4-(4-((8-Methoxy-3-oxo-3,4-dihydro-2H-benzo[b][1,4]oxazin-6-yl)methyl)piperazin-1-yl)-N,3-dimethylbenzamide]",15.8,>6.0
"CC1Oc2ccc(Cn3cc4ccccc4n3)cc2NC1=O (stereo not shown) [Compound 344, 6-((2H-Indazol-2-yl)methyl)-2-methyl-2H-benzo[b][1,4]oxazin-3(4H)-one]",> 200,1.3
"CC1Oc2cc(F)c(CN3CC=C(c4ccc(Cl)cc4)CC3)cc2NC1=O (stereo not shown) [Compound 331, 6-((4-(4-Chlorophenyl)-5,6-dihydropyridin-1(2H)-yl)methyl)-7-fluoro-2-methyl-2H-benzo[b][1,4]oxazin-3(4H)-one]",> 200,1.3
"Cc1cc2c(cc1CN1CC=C(c3ccc(Cl)cc3)CC1)NC(=O)C(C)O2 (stereo not shown) [Compound 321, 6-((4-(4-Chlorophenyl)-5,6-dihydropyridin-1(2H)-yl)methyl)-2,7-dimethyl-2H-benzo[b][1,4]oxazin-3(4H)-one]",2,1.4
